Experimental data published in PMC12113540, “Isolation and Characterization of L-Asparaginase-Producing Bacteria from the Arabian–Persian Gulf Region: First Report on Bacillus xiamenensis ASP-J1-4 as a Producer and Its Potential Application” (Marine Drugs, 2025).

Test system: T1, ASP-J1-4 L-ASNase
T1 construct: gene ansZ; native enzyme from culture broth, acetone precipitation, dialysis, DEAE-Sepharose; 36 kDa (37 kDa in abstract) by SDS-PAGE; no L-glutaminase activity
Assay: ammonia release, Nessler's reagent, A436; Lineweaver-Burk plot
Type: biochemical, Bacillus xiamenensis
Settings: 0.02-2.42 mM L-ASN; regular assay conditions (pH and temperature not restated for kinetics)

Km: 150 µM
SMILES: NC(=O)C[C@H](N)C(=O)O [L-ASN]
